Data reported in patent publication US11285156B2, “Substituted piperazines as KRAS G12C inhibitors” (Amgen Inc., priority 2018, dated 2022).
Where two headings read alike, the source gives them in different places.

Key:
[1] = target: GDP-bound KRAS protein (aa 1-169), containing both G12C and C118A amino acid substitutions (Homo sapiens (Human), UniProt P01116, C118A/G12C); assay: Coupled nucleotide exchange assay (SOS-mediated nucleotide exchange, AlphaScreen); format: biochemical; conditions: 5 min compound pre-incubation; for IC50: read-out: Coupled exchange IC50 (5 min; μM)
Procedure: Coupled Nucleotide Exchange Assay:
Following compound pre-incubation, purified SOS protein (aa 564-1049) and GTP (Roche 10106399001) were added to the assay wells and incubated for an additional 30 min (for 5 min compound pre-incubation) or 1 hour (for 2 hour compound pre-incubation). […] The assay plates were then read on a PerkinElmer EnVision Multilabel Reader, using AlphaScreen® technology, and data were analyzed using a 4-parameter logistic model to calculate IC50 values.

[2] = tested on: Phosphorylation of ERK1/2 in MIA PaCa-2 cells; assay: Phospho-ERK1/2 MSD assay in MIA PaCa-2 cells; format: cell-based; conditions: read-out: p-ERK IC50 (2 h, MiaPaCa-2; μM), 2 h compound treatment, MIA PaCa-2 cells, EGF stimulated
In short: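 Phospho-ERK1/2 measured by MSD electrochemiluminescence kit in RIPA lysates of MIA PaCa-2 cells. Cells were treated with compound titrations for 2 or 4 h at 37 °C, 5% CO2, followed by a 10 min pulse of 10 ng/mL EGF.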

[3] = tested on: Phosphorylation of ERK1/2 in A549 cells; assay: Phospho-ERK1/2 MSD assay in A549 cells; format: cell-based; conditions: read-out: p-ERK IC50 (2 h, A549; μM), 2 h compound treatment, A549 cells, EGF stimulated
In short: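 Readout: MSD phospho-ERK1/2 signal after compound (2 or 4 h) and 10 min EGF stimulation at 10 ng/mL.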

GDP-bound KRAS protein (aa 1-169), containing both G12C and C118A amino acid substitutions, sequence (P01116 other isoform, or with tags, fused parts or gaps G12C/C118A): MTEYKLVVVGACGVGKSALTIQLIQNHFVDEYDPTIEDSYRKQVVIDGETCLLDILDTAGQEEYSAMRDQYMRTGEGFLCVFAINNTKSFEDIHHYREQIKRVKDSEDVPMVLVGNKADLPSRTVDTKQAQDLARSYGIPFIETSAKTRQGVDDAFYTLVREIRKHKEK

SMILES	IC50 [1] [µM]	IC50 ([2]; Homo sapiens, MIA PaCa-2, 2 h) [µM]	IC50 ([3]; Homo sapiens, A549, 2 h) [µM]	IC50 [2] [µM]	IC50 [3] [µM]	Coupled exchange IC50 (5 min; μM) [1] [µM]
C=CC(=O)N1C[C@H](C)N(c2nc(=O)n(-c3c(C(C)C)nc(OCCN(C)C)nc3C(C)C)c3nc(-c4ccccc4F)c(Cl)cc23)C[C@H]1C [Example 157, 4-((2S,5R)-4-Acryloyl-2,5-dimethylpiperazin-1-yl)-6-chloro-1-(2-(2-(dimethylamino)ethoxy)-4,6-diisopropylpyrimidin-5-yl)-7-(2-fluorophenyl)pyrido[2,3-d]pyrimidin-2(1H)-one]	0.064	0.07	> 7.5			
C=CC(=O)N1C[C@H](C)N(c2nc(=O)n(-c3c(C(C)C)nc(N(C)C)nc3C(C)C)c3nc(-c4ccccc4F)c(Cl)cc23)C[C@H]1C [Example 107-2, 6-Chloro-1-[2-(dimethylamino)-4,6-diisopropyl-pyrimidin-5-yl]-4-[(2S,5R)-2,5-dimethyl-4-prop-2-enoyl-piperazin-1-yl]-7-(2-fluorophenyl)pyrido [2,3-d]pyrimidin-2-one]	0.098	0.299	1.25			
C=CC(=O)N1CCN(c2nc(=O)n(CC(C)(C)C)c3nc(-c4ccccc4F)c(Cl)cc23)CC1CC#N (single isomer, unassigned) [Example 145-1-2, 2-[4-[6-Chloro-1-(2,2-dimethylpropyl)-7-(2-fluorophenyl)-2-oxo-pyrido[2,3-d]pyrimidin-4-yl]-1-prop-2-enoyl-piperazin-2-yl]acetonitrile]	1.15			1.05	3.94	
C=CC(=O)N1C[C@H](C)N(c2nc(=O)n(-c3c(C(C)C)cncc3C(C)C)c3nc(-c4ccccc4F)c(Cl)cc23)C[C@H]1C [Example 103-4, 6-Chloro-1-(3,5-diisopropyl-4-pyridyl)-4-[(2S,5R)-2,5-dimethyl-4-prop-2-enoyl-piperazin-1-yl]-7-(2-fluorophenyl) pyrido[2,3-d]pyrimidin-2-one]	0.057	0.062	> 7.5			
C=CC(=O)N1C[C@H](C)N(c2nc(=O)n(-c3c(C)ccnc3C(C)C)c3nc(-c4ccccc4C(N)=O)c(Cl)cc23)C[C@H]1C (atropisomer, axis not shown; (M)) [Example 92-21, (M)-2-[6-Chloro-4-[(2S,5R)-2,5-dimethyl-4-prop-2-enoyl-piperazin-1-yl]-1-(2-isopropyl-4-methyl-3-pyridyl)-2-oxo-pyrido[2,3-d]pyrimidin-7-yl]benzamide]	0.051	0.637	> 7.5			
C=CC(=O)N1C[C@H](C)N(c2nc(=O)n(C(C)C)c3nc(-c4ccccc4F)c(Cl)cc23)C[C@H]1C [Example 55-60, 6-Chloro-4-[(2S,5R)-2,5-dimethyl-4-prop-2-enoyl-piperazin-1-yl]-7-(2-fluorophenyl)-1-isopropyl-pyrido[2,3-d]pyrimidin-2-one]	7.85	7.77	> 7.5			
C=CC(=O)N1C[C@H](C)N(c2nc(=O)n(-c3c(CC)ncnc3C(C)C)c3nc(-c4ccccc4F)c(Cl)cc23)C[C@H]1C (single isomer, unassigned) [Example 109-1-1]	0.06			0.045	> 7.5	
C#Cc1ccc(F)c(-c2nc3c(cc2Cl)c(N2C[C@@H](C)N(C(=O)C=C)C[C@@H]2C)nc(=O)n3-c2c(C)ccnc2C(C)C)c1 (atropisomer, axis not shown; (M)) [Example 226, (M)-6-Chloro-4-[(2S,5R)-2,5-dimethyl-4-prop-2-enoyl-piperazin-1-yl]-7-(5-ethynyl-2-fluoro-phenyl)-1-(2-isopropyl-4-methyl-3-pyridyl)pyrido[2,3-d]pyrimidin-2-one]	0.04			0.063	> 7.5	
C=CC(=O)N1C[C@H](C)N(c2nc(=O)n(-c3c(C(C)C)cccc3[S+](C)[O-])c3nc(-c4ccccc4F)c(Cl)cc23)C[C@H]1C (stereo partly drawn) [Example 103-3, 4-((2S,5R)-4-acryloyl-2,5-dimethylpiperazin-1-yl)-6-chloro-7-(2-fluorophenyl)-1-(2-isopropyl-6-(methylsulfinyl)phenyl)pyrido[2,3-d]pyrimidin-2(1H)-one]		0.143	> 7.5			0.677
C=CC(=O)N1C[C@H](C)N(c2nc(=O)n(-c3c(C(C)C)nc(CN4CCN(C)CC4)nc3C(C)C)c3nc(-c4ccccc4F)c(Cl)cc23)C[C@H]1C [Example 170, 6-Chloro-1-[4,6-diisopropyl-2-[(4-methylpiperazin-1-yl)methyl]pyrimidin-5-yl]-4-[(2S,5R)-2,5-dimethyl-4-prop-2-enoyl-piperazin-1-yl]-7-(2-fluorophenyl)pyrido[2,3-d]pyrimidin-2-one]	0.064	0.077	> 7.5			
C=CC(=O)N1C[C@H](C)N(c2nc(=O)n(-c3c(C)ccnc3C(C)C)c3nc(-c4c(F)cccc4NC(=O)OC)c(Cl)cc23)C[C@H]1C (atropisomer, axis not shown; (M)) [Example 129-8, (M)-Methyl N-[2-[6-chloro-4-[(2S,5R)-2,5-dimethyl-4-prop-2-enoyl-piperazin-1-yl]-1-(2-isopropyl-4-methyl-3-pyridyl)-2-oxo-pyrido[2,3-d]pyrimidin-7-yl]-3-fluoro-phenyl]carbamate]	0.056	0.023	> 7.5			
C=CC(=O)N1C[C@H](C)N(c2nc(=O)n(-c3c(CC)ncnc3C(C)C)c3nc(-c4ccccc4F)c(Cl)cc23)C[C@H]1C [Example 109-1, 4-((2S,5R)-4-Acryloyl-2,5-dimethylpiperazin-1-yl)-6-chloro-1-(4-ethyl-6-isopropylpyrimidin-5-yl)-7-(2-fluorophenyl)pyrido[2,3-d]pyrimidin-2(1H)-one]	0.194	0.052	> 7.5			
C=CC(=O)N1CCN(c2nc(=O)n(-c3c(C)ccnc3C(C)C)c3nc(-c4ccccc4F)c(Cl)cc23)[C@H]2C[C@H]21 (atropisomer, axis not shown; (M)) [Example 222-2, (M)-4-((1S,6R)-5-acryloyl-2,5-diazabicyclo[4.1.0]heptan-2-yl)-6-chloro-7-(2-fluorophenyl)-1-(2-isopropyl-4-methylpyridin-3-yl)pyrido[2,3-d]pyrimidin-2(1H)-one]	0.014			0.048	2.52	
C=CC(=O)N1C[C@H](C)N(c2nc(=O)n(-c3c(C)ncnc3C(C)C)c3nc(-c4ccccc4F)c(Cl)cc23)C[C@H]1C (single isomer, unassigned) [Example 194-1]		0.033	> 7.5			0.067
C=CC(=O)N1C[C@H](C)N(c2nc(=O)n(-c3c(C)ccnc3C(C)C)c3nc(-c4c(F)cccc4NC(=O)C(F)(F)F)c(Cl)cc23)C[C@H]1C (atropisomer, axis not shown; (M)) [Example 129-2, (M)-N-[2-[6-Chloro-4-[(2S,5R)-2,5-dimethyl-4-prop-2-enoyl-piperazin-1-yl]-1-(2-isopropyl-4-methyl-3-pyridyl)-2-oxo-pyrido[2,3-d]pyrimidin-7-yl]-3-fluoro-phenyl]-2,2,2-trifluoro-acetamide]	0.065	0.027	> 7.5			
C=CC(=O)N1CCN(c2nc(=O)n(CC(C)(C)C#N)c3nc(-c4ccccc4F)c(Cl)cc23)[C@@H](C)C1 [Example 106-9, 3-[6-Chloro-7-(2-fluorophenyl)-4-[(2S)-2-methyl-4-prop-2-enoyl-piperazin-1-yl]-2-oxo-pyrido[2,3-d]pyrimidin-1-yl]-2,2-dimethyl-propanenitrile]	3.7	2.24	> 7.5			
[2H]C1([2H])CN(c2nc(=O)n(-c3c(C)ccnc3C(C)C)c3nc(-c4c(O)cccc4F)c(F)cc23)CC([2H])([2H])N1C(=O)C=C (atropisomer, axis not shown; (M)) [Example 72-20, (M)-6-Fluoro-7-(2-fluoro-6-hydroxy-phenyl)-1-(2-isopropyl-4-methyl-3-pyridyl)-4-(3,3,5,5-tetradeuterio-4-prop-2-enoyl-piperazin-1-yl)pyrido[2,3-d]pyrimidin-2-one]		0.223	> 7.5			0.382
C=CC(=O)N1C[C@H](C)N(c2nc(=O)n(-c3c(C)ccnc3C(C)C)c3nc(-c4cccc(Cl)c4)c(Cl)cc23)C[C@H]1C (atropisomer, axis not shown; (M)) [Example 92-54, (M)-6-Chloro-7-(3-chlorophenyl)-4-[(2S,5R)-2,5-dimethyl-4-prop-2-enoyl-piperazin-1-yl]-1-(2-isopropyl-4-methyl-3-pyridyl)pyrido [2,3-d]pyrimidin-2-one]	0.169	0.217	> 7.5			
C=CC(=O)N1CCN(c2nc(=O)n(-c3c(C)ccnc3C(C)C)c3nc(-c4ccccc4F)c(Cl)cc23)CC1CC#N (atropisomer, axis not shown; (M)) [Example 145-2, (M)-2-[4-[6-Chloro-7-(2-fluorophenyl)-1-(2-isopropyl-4-methyl-3-pyridyl)-2-oxo-pyrido[2,3-d]pyrimidin-4-yl]-1-prop-2-enoyl-piperazin-2-yl]acetonitrile]	0.344		> 7.5	1.68		
